Experimental data from the supplement of paper PMC11208160.

Assay: recombinant barcode read abundance after kanamycin selection (control-corrected) (log10(CPM+1)); higher = more efficient recombination; sequences stand for … in AGTGCAGAGAAAATCGGCCAGTTTTCTCTGCCTGCAGTCCGCATGCCGT…AGATTTATGCAGCGGACTGCCTTTCTCCCAAAGTGATAAACCGGACAGTATCATGGACCGGTTTTCCCGGTAATCCGTATTTGCAAGGTTGGTTTCACT; site = the 11-nt target
Method in brief: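 Reported as log10(CPM+1), each value stands for recombination efficiency. That efficiency is the averaged, control-corrected counts per million of barcodes found at recombinant junctions. Cells from a pooled E. coli library pairing targets with IS621 bridge RNA target-binding loops were plated twice on chloramphenicol/ampicillin LB agar (control) and twice on chloramphenicol/ampicillin/kanamycin with 0.1 mM IPTG.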
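Further: IS621 recombinase and bridge RNA in Escherichia coli cells.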

Compared with “CCTGGCACTTGGGTTCTAACCTGTTGCGA (site CCTAGCACTTC)”, “CCTGGCACTTGGGTTCTAACCTGTTGCGA (site CCTCGCACTTC)” is lower in “recombinant barcode read abundance (log10)” value: 1.45 for the first, 0.0518 for the second.

Going from “CCTGGCACTTGGGTTCTAACCTGTTGCGA (site CCTGGCACTTC)” to “CCTGGCACTTGGGTTCTAACCTGTTGCGA (site CCTTGCACTTC)”, the “recombinant barcode read abundance (log10)” value falls from 2.37 to 0.0559.

Going from “CCTGGGCCTTGGGTTCTAACCTGTTGCTT (site CCTGGACCTAC)” to “CCTGGGCCTTGGGTTCTAACCTGTTGCTT (site CCTGGGCCTAA)”, the “recombinant barcode read abundance (log10)” value rises from 0.471 to 0.686.

“CCTGGGGCTTGGGTTCTAACCTGTTGCCT (site CCTGGGGCTAG)” and “CCTGGGGCTTGGGTTCTAACCTGTTGCCT (site CCTGGTCCTAG)” are within 0.2 log units of each other in “recombinant barcode read abundance (log10)” value: 0.233 for the first, 0.189 for the second.

“CCTGTATCTTGGGTTCTAACCTGTTGCCT (site ACTGTATCTAG)” and “CCTGTATCTTGGGTTCTAACCTGTTGCCT (site CCTGTATCTAG)” are within 0.2 log units of each other in “recombinant barcode read abundance (log10)” value: 0.0208 for the first, 0.127 for the second.

Compared with “CCTGTATCTTGGGTTCTAACCTGTTGCCT (site GCTGTATCTAG)”, “CCTGTATCTTGGGTTCTAACCTGTTGCCT (site TCTGTATCTAG)” is lower in “recombinant barcode read abundance (log10)” value: 0.26 for the first, 0.039 for the second.

Compared with “CCTTACACTTGGGTTCTAACCTGTTGCGG (site CCTGACACTCC)”, “CCTTACACTTGGGTTCTAACCTGTTGCGG (site CCTTACACTCC)” is higher in “recombinant barcode read abundance (log10)” value: 0.063 for the first, 2.53 for the second.

Going from “CCTTACCCTTGGGTTCTAACCTGTTGCCT (site CCTTACCCTAG)” to “CCTTACCCTTGGGTTCTAACCTGTTGCCT (site CCTTAGCCTAG)”, the “recombinant barcode read abundance (log10)” value falls from 1.11 to 0.0606.

“CCTTCTCCTTGGGTTCTAACCTGTTGCAT (site CCTTCTCCTAT)” and “CCTTCTCCTTGGGTTCTAACCTGTTGCAT (site GTACGATCTCC)” are within 0.2 log units of each other in “recombinant barcode read abundance (log10)” value: 0.319 for the first, 0.146 for the second.

“CCTTGCACTTGGGTTCTAACCTGTTGCGA (site CCTAGCACTTC)” and “CCTTGCACTTGGGTTCTAACCTGTTGCGA (site CCTCGCACTTC)” are within 0.2 log units of each other in “recombinant barcode read abundance (log10)” value: 0.0223 for the first, 0.0306 for the second.

First: CCTTGCACTTGGGTTCTAACCTGTTGCGA (site CCTGGCACTTC)
Second: CCTTGCACTTGGGTTCTAACCTGTTGCGA (site CCTTGCACTTC)
The “recombinant barcode read abundance (log10)” value of the first is lower: 0.0155 for the first, 0.409 for the second.

Compared with “CCTTGGGCTTGGGTTCTAACCTGTTGCTT (site CCTTGGGCTAA)”, “CCTTGGGCTTGGGTTCTAACCTGTTGCTT (site CTTTGGCCTAA)” is higher in “recombinant barcode read abundance (log10)” value: 0.011 for the first, 0.305 for the second.

“CCTTGTACTTGGGTTCTAACCTGTTGCCT (site CCTTGTACTAG)” and “CCTTGTACTTGGGTTCTAACCTGTTGCCT (site CTTTGTACTAG)” are within 0.2 log units of each other in “recombinant barcode read abundance (log10)” value: 0.035 for the first, 0.0491 for the second.

First: CCTTTACCTTGGGTTCTAACCTGTTGCCT (site ACTTTACCTAG)
Second: CCTTTACCTTGGGTTCTAACCTGTTGCCT (site CCTTTACCTAG)
The “recombinant barcode read abundance (log10)” value of the first is lower: 0.136 for the first, 0.337 for the second.

“CCTTTACCTTGGGTTCTAACCTGTTGCCT (site GCTTTACCTAG)” and “CCTTTACCTTGGGTTCTAACCTGTTGCCT (site TCTTTACCTAG)” are within 0.2 log units of each other in “recombinant barcode read abundance (log10)” value: 0.0546 for the first, 0.171 for the second.

“CGAACATCTTGGGTTCTAACCTGTTGCTT (site ACCTACCCTCC)” and “CGAACATCTTGGGTTCTAACCTGTTGCTT (site CGAACATCTAA)” are within 0.2 log units of each other in “recombinant barcode read abundance (log10)” value: 0 for the first, 0.144 for the second.

“CGAACGACTTGGGTTCTAACCTGTTGCCT (site CGAACGACTAA)” and “CGAACGACTTGGGTTCTAACCTGTTGCCT (site CGAACGACTAG)” are within 0.2 log units of each other in “recombinant barcode read abundance (log10)” value: 0.157 for the first, 0.259 for the second.

“CGAACTACTTGGGTTCTAACCTGTTGCGT (site CGAACTACTAA)” and “CGAACTACTTGGGTTCTAACCTGTTGCGT (site CGAACTACTAC)” are within 0.2 log units of each other in “recombinant barcode read abundance (log10)” value: 0.22 for the first, 0.143 for the second.

“CGAACTACTTGGGTTCTAACCTGTTGCGT (site CGAACTACTAG)” and “CGAACTACTTGGGTTCTAACCTGTTGCGT (site CGAACTACTAT)” are within 0.2 log units of each other in “recombinant barcode read abundance (log10)” value: 0.109 for the first, 0.0569 for the second.

“CGAAGATCTTGGGTTCTAACCTGTTGCCT (site CAAAGATCTAG)” and “CGAAGATCTTGGGTTCTAACCTGTTGCCT (site CCAAGATCTAG)” are within 0.2 log units of each other in “recombinant barcode read abundance (log10)” value: 0.142 for the first, 0 for the second.

Compared with “CGAAGATCTTGGGTTCTAACCTGTTGCCT (site CGAAGATCTAG)”, “CGAAGATCTTGGGTTCTAACCTGTTGCCT (site CTAAGATCTAG)” is lower in “recombinant barcode read abundance (log10)” value: 0.273 for the first, 0.069 for the second.

“CGACACTCTTGGGTTCTAACCTGTTGCCT (site CAACACTCTAG)” and “CGACACTCTTGGGTTCTAACCTGTTGCCT (site CCACACTCTAG)” are within 0.2 log units of each other in “recombinant barcode read abundance (log10)” value: 0.107 for the first, 0.164 for the second.

Compared with “CGACACTCTTGGGTTCTAACCTGTTGCCT (site CGACACTCTAG)”, “CGACACTCTTGGGTTCTAACCTGTTGCCT (site CTACACTCTAG)” is lower in “recombinant barcode read abundance (log10)” value: 0.251 for the first, 0.0214 for the second.

Going from “CGACAGTCTTGGGTTCTAACCTGTTGCCT (site CGACAGTCTAG)” to “CGACAGTCTTGGGTTCTAACCTGTTGCCT (site TAGATTCCTTT)”, the “recombinant barcode read abundance (log10)” value falls from 0.687 to 0.201.

First: CGACATACTTGGGTTCTAACCTGTTGCGT (site CGACATACTAC)
Second: CGACATACTTGGGTTCTAACCTGTTGCGT (site GGACATGCTAC)
The “recombinant barcode read abundance (log10)” value of the first is higher: 0.593 for the first, 0.0511 for the second.

First: CGACCCTCTTGGGTTCTAACCTGTTGCTT (site ACACCCTCTAA)
Second: CGACCCTCTTGGGTTCTAACCTGTTGCTT (site CGACCCTCTAA)
The “recombinant barcode read abundance (log10)” value of the first is lower: 0.178 for the first, 1.39 for the second.

“CGACCTACTTGGGTTCTAACCTGTTGCTA (site CGACCTACTTA)” and “CGACCTACTTGGGTTCTAACCTGTTGCTA (site GTACCTACTTA)” are within 0.2 log units of each other in “recombinant barcode read abundance (log10)” value: 0.088 for the first, 0.17 for the second.

“CGACCTGCTTGGGTTCTAACCTGTTGCCT (site CGACCTGCTAG)” and “CGACCTGCTTGGGTTCTAACCTGTTGCCT (site CGCCCTACTAG)” are within 0.2 log units of each other in “recombinant barcode read abundance (log10)” value: 0.246 for the first, 0.249 for the second.

“CGACGAACTTGGGTTCTAACCTGTTGCCT (site CGACGAACTAG)” and “CGACGAACTTGGGTTCTAACCTGTTGCCT (site GTCAATCCTCC)” are within 0.2 log units of each other in “recombinant barcode read abundance (log10)” value: 0.201 for the first, 0.0212 for the second.

Going from “CGACGTCCTTGGGTTCTAACCTGTTGCGG (site CGACGTCCTCC)” to “CGACGTCCTTGGGTTCTAACCTGTTGCGG (site TGAAGTCCTCC)”, the “recombinant barcode read abundance (log10)” value falls from 1.74 to 0.00826.

“CGACTTACTTGGGTTCTAACCTGTTGCAT (site ACGGGCTCTGA)” and “CGACTTACTTGGGTTCTAACCTGTTGCAT (site CGACTTACTAT)” are within 0.2 log units of each other in “recombinant barcode read abundance (log10)” value: 0.103 for the first, 0.0348 for the second.

“CGAGCTCCTTGGGTTCTAACCTGTTGCCT (site CGAGCTCCTAA)” and “CGAGCTCCTTGGGTTCTAACCTGTTGCCT (site CGAGCTCCTAC)” are within 0.2 log units of each other in “recombinant barcode read abundance (log10)” value: 0.763 for the first, 0.582 for the second.

First: CGAGCTCCTTGGGTTCTAACCTGTTGCCT (site CGAGCTCCTAG)
Second: CGAGCTCCTTGGGTTCTAACCTGTTGCCT (site CGAGCTCCTAT)
The “recombinant barcode read abundance (log10)” value of the first is higher: 1.24 for the first, 0.157 for the second.

Compared with “CGAGGCCCTTGGGTTCTAACCTGTTGCTT (site CGAGGCCCTAA)”, “CGAGGCCCTTGGGTTCTAACCTGTTGCTT (site GTCCTATCTGT)” is lower in “recombinant barcode read abundance (log10)” value: 1.93 for the first, 0.0488 for the second.

Compared with “CGAGTGACTTGGGTTCTAACCTGTTGCCA (site CGAGTGACTTG)”, “CGAGTGACTTGGGTTCTAACCTGTTGCCA (site TTCCGTCCTAA)” is lower in “recombinant barcode read abundance (log10)” value: 0.906 for the first, 0.382 for the second.

First: CGATCGACTTGGGTTCTAACCTGTTGCAG (site CGACCGACTCT)
Second: CGATCGACTTGGGTTCTAACCTGTTGCAG (site CGATCGACTCT)
The “recombinant barcode read abundance (log10)” value of the first is lower: 0.401 for the first, 0.809 for the second.

Going from “CGATCGCCTTGGGTTCTAACCTGTTGCCT (site CGATCGCCTAG)” to “CGATCGCCTTGGGTTCTAACCTGTTGCCT (site GGACCGCCTAG)”, the “recombinant barcode read abundance (log10)” value falls from 0.339 to 0.0952.

Going from “CGATGTGCTTGGGTTCTAACCTGTTGCCT (site CGATGTCCTAG)” to “CGATGTGCTTGGGTTCTAACCTGTTGCCT (site CGATGTGCTAG)”, the “recombinant barcode read abundance (log10)” value rises from 0.334 to 0.535.

“CGATTTCCTTGGGTTCTAACCTGTTGCAT (site CGATTTCCTAG)” and “CGATTTCCTTGGGTTCTAACCTGTTGCAT (site CGATTTCCTAT)” are within 0.2 log units of each other in “recombinant barcode read abundance (log10)” value: 0 for the first, 0.0511 for the second.

“CGCCATCCTTGGGTTCTAACCTGTTGCAT (site CGCCATCCTAT)” and “CGCCATCCTTGGGTTCTAACCTGTTGCAT (site CGCCCTCCTAT)” are within 0.2 log units of each other in “recombinant barcode read abundance (log10)” value: 0.134 for the first, 0.227 for the second.

First: CGCCATCCTTGGGTTCTAACCTGTTGCAT (site CGCCGTCCTAT)
Second: CGCCATCCTTGGGTTCTAACCTGTTGCAT (site CGCCTTCCTAT)
The “recombinant barcode read abundance (log10)” value of the first is lower: 0.0349 for the first, 0.569 for the second.

“CGCCCACCTTGGGTTCTAACCTGTTGCCT (site CGCCCACCTAG)” and “CGCCCACCTTGGGTTCTAACCTGTTGCCT (site CTCCAACCTAG)” are within 0.2 log units of each other in “recombinant barcode read abundance (log10)” value: 0.0145 for the first, 0 for the second.

“CGCCCTACTTGGGTTCTAACCTGTTGCCT (site CGACCTGCTAG)” and “CGCCCTACTTGGGTTCTAACCTGTTGCCT (site CGCCCTACTAG)” are within 0.2 log units of each other in “recombinant barcode read abundance (log10)” value: 0.236 for the first, 0.239 for the second.
